Data reported in patent US8785478B2, “Viral polymerase inhibitors” (Biota Scientific Management Pty Ltd, priority 2012, dated 2014).
Where two headings read alike, the source gives them in different places.

Key:
1b (BK) NS5BΔ21 = target: T1, 1b (BK) NS5BΔ21 (Hepatitis C virus genotype 1b, UniProt P26663); experiment: HCV Polymerase Inhibition Assay; assay type: biochemical
T1 construct: 100 nM, 1b (BK) NS5BΔ21
Method: HCV polymerase reactions were carried out using a modified method of Howe et al., Antimicrobial Agents and Chemotherapy 2004 48(12): 4813-4821. Reactions contained a final concentration of, 0.5% DMSO, 100 nM, 1b (BK) NS5BΔ21, 20 mM Tris-HCl pH 7.5, 5 mM MgCl2, 5 mM MnCl2, 3 mM DTT, 0.05% BSA, 0.2 U/μL RNasin, 10 μg/mL Poly(rC) template, GTP (at Km) and 0.05 μCi/μL ^33P-GTP in a total reaction volume of 50 μL. Compounds were tested in a three fold dilution series, for example starting from 50 μM. Reactions were initiated with the addition of GTP and terminated after 90 min with 50 μL ice cold 0.2 M EDTA. Terminated reactions were transferred to DEAE 96-well filter plates, unincorporated nucleotides washed from the filters and 50 μL scintillation fluid added prior to reading on a scintillation counter. The compound concentration that reduced ^33P-GTP incorporation by 50% (IC50) was calculated using non-linear regression.

[1] = system: genotype 1b (Con 1) subgenomic replicon cell line; experiment: HCV replicon assay, genotype 1b (Renilla luciferase); assay type: cell-based; conditions: Hepatitis C virus, genotype 1b replicon
Method: (§1) A genotype 1b (Con 1) subgenomic replicon cell line based on Blight et al., Science 2000 290: 1972-1974, modified to express a Renilla luciferase reporter gene was used to assess antiviral activity of test compounds. Cell cultures were maintained in a sub-confluent state in DMEM with glutamine, 10% heat-inactivated foetal bovine serum (FBS) and G418 (Geneticin®).
(§2) For assay, cells were seeded at a density of 7000 cells/well into 96 well tissue culture trays in culture media lacking G418. Compounds were tested in a three fold dilution series, for example starting from 50 uM. After 72 hours incubation at 37° C. and 5% CO2, Renilla luciferase activity was quantified via the Promega Renilla Luciferase or Renilla-Glo™ Luciferase Assay Systems (Promega corporation. The same method was employed for replicon assays using subgenomic genotype 1a (H77) and 2a (JFH-1) replicon cell lines with a seeding cell density of 5000 cells/well for the 2a cell lines.
(§3) The compound concentration that reduced luciferase activity by 50% (EC50) was calculated using non-linear regression.

[2] = system: subgenomic genotype 1a (H77) replicon cell line; experiment: HCV replicon assay, genotype 1a (Renilla luciferase); assay type: cell-based; conditions: Hepatitis C virus; genotype 1a replicon; read-out: G1a (EC50 μM)
Method: as §1, §2, §3

[3] = system: subgenomic genotype 2a (JFH-1) replicon cell line; experiment: HCV replicon assay, genotype 2a (Renilla luciferase); assay type: cell-based; conditions: Hepatitis C virus; genotype 2a replicon; read-out: G2a (EC50 μM)
Method: as §1, §2, §3

[4] = Cytotoxicity analysis (MTT); assay type: cell-based; conditions: genotype 1b replicon cells, three days, read-out: G1b (CC50 μM)
Method: Cytotoxicity of compounds against genotype 1b replicon cells was determined via metabolism of the vital dye 3-(4,5-dimethylthiaxol-2-yl)-2,5-diphenyltetrazolium bromide (MTT, for example see Watanabe et al., Journal of Virological Methods 1994 48:257-265). Plates were prepared as described for the HCV Replicon assay and cytotoxicity of the test article was evaluated after three days. MTT was added to assay plates followed by three hour incubation at 37° C. Wells were aspirated to dryness and the formazan dye dissolved by the addition of isopropanol. Absorbance values were read at 540/690 nm). The compound concentration that reduced cell viability by 50% (CC50) was calculated using non-linear regression.

[5] = Aqueous solubility (laser nephelometry); assay type: physicochemical; conditions: for solubility at 30 min: aqueous assay buffer with 1% DMSO, kinetic from dmso stock, 30 minute incubation at 25° C.
Method: Test compounds prepared in DMSO were screened in duplicate over a range of concentrations (1.6-100 ug/mL) in different aqueous media (for example a pH6.5 buffers which are relevant to the stomach and upper regions of the small intestine and therefore important when predicting the amount of drug likely to be in solution following oral administration). Test compounds were serially diluted in 100% DMSO ranging from 10-0.16 mg/mL. These titrated DMSO stocks were then further diluted 1:100 with assay buffer and added to test plates (UV Star Griener 384 well plates), maintaining the DMSO concentration at 1%.

T1 sequence (P26663 2420-2989, stated change not applied): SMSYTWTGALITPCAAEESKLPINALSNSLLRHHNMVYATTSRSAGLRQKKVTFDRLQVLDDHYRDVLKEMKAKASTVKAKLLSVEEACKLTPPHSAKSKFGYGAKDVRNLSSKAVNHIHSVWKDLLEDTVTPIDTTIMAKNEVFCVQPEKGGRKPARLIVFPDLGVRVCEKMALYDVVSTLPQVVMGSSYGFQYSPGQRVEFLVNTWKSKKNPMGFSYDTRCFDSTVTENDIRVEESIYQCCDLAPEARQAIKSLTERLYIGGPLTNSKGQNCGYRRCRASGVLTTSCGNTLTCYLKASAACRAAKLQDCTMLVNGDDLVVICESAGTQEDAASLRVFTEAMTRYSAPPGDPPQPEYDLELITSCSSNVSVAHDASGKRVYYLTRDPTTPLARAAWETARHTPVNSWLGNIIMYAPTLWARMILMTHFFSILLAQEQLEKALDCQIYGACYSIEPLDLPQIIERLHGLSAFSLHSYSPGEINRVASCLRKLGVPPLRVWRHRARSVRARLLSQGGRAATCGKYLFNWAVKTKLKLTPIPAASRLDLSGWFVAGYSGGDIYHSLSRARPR

CCN(c1cc2nn(-c3ccc(C)cn3)c(C(=O)NC)c2cc1C1CC1)S(C)(=O)=O [Compound 5, 5-cyclopropyl-6-[ethyl(methylsulfonyl)amino]-N-methyl-2-(5-methylpyridin-2-yl)-2H-indazole-3-carboxamide]
IC50 (1b (BK) NS5BΔ21; 1b polymerase IC50 (μM) range, genotype 1b NS5B, 33P-GTP incorporation): 0.1 to 0.49 µM
IC50 (1b (BK) NS5BΔ21; NS5B G1b (IC50 μM), genotype 1b polymerase): 0.283 µM
times more potent than Compound A (1b (BK) NS5BΔ21; in each of the HCV assays tested (polymerase, replicon)): at least 10 times
EC50 ([1]; 72 hours, read-out: genotype 1b EC50 (μM) range): < 0.1 µM
EC50 ([1]; read-out: G1b (EC50 μM)): 0.03 µM
EC50 [2]: 0.068 µM
EC50 [3]: 0.147 µM
CC50 at 3 days [4]: > 50 µM
solubility at 30 min ([5]; aqueous buffer, pH 6.5, 1% DMSO, read-out: Solubility pH 6.5): > 100 µg/mL
solubility at 30 min ([5]; simulated gastric fluid, pH 2, 1% DMSO, read-out: Solubility pH 2): > 100 µg/mL
solubility in words ([5]; at both pH2 and pH 6.5): good solubility
